The OPERA property sets (Mansouri et al. 2018)

Row | Compound | logP
1 | Cn1cnc2ccccc2c1=O | 0.69
2 | CCOC(=O)c1cncn1C(C)c1ccccc1 (stereo not drawn) | 3.05
3 | CC(=O)N(C)c1ccc(S(=O)(=O)N(C)C)cc1 | 0.23
4 | O=C(CCc1ccccc1)Nc1ccc(Cl)c(Cl)c1 | 4.85
5 | NC(=O)Nc1cccc(NC(N)=O)c1 | 0.58
6 | CSc1ccc(NC(C)=O)cc1 | 2.03
7 | COc1cccc2c1C(=O)c1c(O)c3c(c(O)c1C2=O)CC(O)(C(=O)CO)CC3O (stereo not drawn) | 2.74
8 | C=CCn1c(C)c(N(C)C)c(=O)n(-c2ccccc2)c1=O | 1.44
9 | Nc1nnc(N)[nH]1 | -1.61
10 | CCCCOC(=O)c1cccc(C(=O)OCCCC)c1 | 4.26
11 | CSC(=O)Nc1ccccc1 | 2.4
12 | CC(=O)Nc1ccccc1C#N | 0.57
13 | CCCC(=O)Nc1ccc(Cl)c(Cl)c1 | 3.77
14 | O=C(O)c1ccccc1-c1ccccc1 | 2.89
15 | NN=C(c1ccccc1)c1ccccc1 | 2.79
16 | CCCCC(=O)N(C)c1ccc(S(=O)(=O)N(C)C)cc1 | 1.63
17 | CN(C(=O)CCC(N)=O)c1ccc(S(=O)(=O)N(C)C)cc1 | -0.56
18 | CSc1ccc(C=NN=C(N)NN)cc1 | 1.35
19 | Cc1nccnn1 | -1.31
20 | NCC(=O)NCC(=O)NCC(=O)NCC(=O)NCC(=O)O | -3.31
21 | NCC(CC(=O)O)c1ccc(Cl)cc1 (stereo not drawn) | -0.96
22 | CC(=O)OC1CCCC(NC(=O)N(CCF)N=O)C1 (stereo not drawn) | 1.33

Row | Compound | logP
23 | COC1OC(CNC(=O)N(C)N=O)C(O)C(O)C1O (stereo not drawn) | -1.57
24 | O=C(Nc1ccc(Cl)c(Cl)c1)C1CCCC1 | 4.47
25 | N[C@@H](CSC(c1ccccc1)(c1ccccc1)c1ccccc1)C(=O)O | 2.06
26 | CN/C(=N\C#N)NCCSCc1csc(N=C(N)N)n1 | 0.68
27 | O=C(O)c1cc(=O)c2cc3c(cc2o1)CCCC3 | 3.4
28 | CCCCNc1c(C)n(C)c(=O)n(-c2ccccc2)c1=O | 1.69
29 | CNC(=S)NC12CC3CC(CC(C3)C1)C2 | 2.67
30 | COc1cc(C=NO)ccc1OCCOC(=O)c1ccc(Cl)cc1 | 3.92
31 | c1ccc(Cc2nn[nH]n2)cc1 | 1.36
32 | N=c1ccn2c(n1)O[C@H]1[C@H](O)[C@@H](CO)O[C@H]12 | -2.37
33 | FC(F)(F)CN(CC(F)(F)F)c1ccccc1 | 3.69
34 | CC(C)Cn1c(=O)n(C)c(=O)c2[nH]cnc21 | 1.15
35 | c1ccn2nnnc2c1 | -0.09
36 | COc1ccc2c(=O)c(C)c(C(C)C)oc2c1 | 3.39
37 | CN(Cc1ccccc1)N=Nc1ccc(C(=O)O)cc1 | 4.04
38 | c1ccc2c(c1)CNc1ccccc1C2 | 2.9
39 | CC(C)(C)/[N+]([O-])=C/c1ccccc1 | 1.26
40 | COc1ncccn1 | 0.23
41 | Cc1oc2ccccc2c(=O)c1C | 2.31
42 | CCN(CC)Cc1ccc(C(=O)Nc2c(C)cccc2C)cc1 | 3.49
43 | O=C(O)c1cc(=O)c2ccccc2o1 | 1.63
44 | COc1cccc(Cc2cnc(N)nc2N)c1OC | 1.62

Row | Compound | logP
45 | O=S([O-])c1ccccc1.[Na+] | -3.54
46 | CC(=O)Nc1ccc2oc(C)c(C)c(=O)c2c1 | 1.79
47 | CSc1cccc(NC(C)=O)c1 | 2.14
48 | O=C(CCl)Nc1ccc(Cl)c(Cl)c1 | 3.29
49 | CN=C=S | 0.94
50 | CNC(=N[N+](=O)[O-])NCCSCc1nc[nH]c1C | 0.18
51 | NC(=O)NN=Cc1ccccc1 | 1.27
52 | CNC(=S)Nc1ccccc1 | 0.85
53 | O=c1cc(-c2ccccc2)oc2cc(O)ccc12 | 3.62
54 | CN(C)C(=S)NCc1ccccc1 | 1.59
55 | CCN(CC)c1c(C)n(-c2ccccc2)c(=O)n(C)c1=O | 2.19
56 | CN(C(=O)CCC#N)c1ccc(S(=O)(=O)N(C)C)cc1 | -0.17
57 | O=C(Nc1ccc(Cl)c(Cl)c1)C(F)(F)F | 3.9
58 | CNC(=O)Oc1cccc(Cl)c1Cl | 2.48
59 | NNc1ccc(Br)cc1 | 1.39
60 | CN(C)CCC1CN(C)C(=S)c2cccnc2O1 (stereo not drawn) | 1.08
61 | CS(=O)(=O)F | 0.55
62 | CN(CCO)C1=C(N2CC2)C(=O)C(N(C)CCO)=C(N2CC2)C1=O | -0.37
63 | CC(=O)Nc1ccc(C(C)=O)cc1 | 1.24
64 | CCC(=O)OCCOc1ccc(C=O)cc1OC | 1.33
65 | CCCCCCCCCCCCN.Cl | 1.85
66 | O=C(Cc1ccccc1)Nc1ccc(Cl)c(Cl)c1 | 4.47

Row | Compound | logP
67 | COc1cc(C=NO)ccc1OCCOC(=O)c1ccccc1OC | 2.84
68 | O=C(CN(C(=O)C(Cl)Cl)c1ccccc1)Nc1ccccc1 | 2.96
69 | COCC(=O)Nc1ccc(Cl)c(Cl)c1 | 2.77
70 | CCCc1c(OCCCCc2nnn[nH]2)ccc(C(C)=O)c1O | 3.82
71 | CCOC(CP(=O)(OCC)OCC)OCC | 0.69
72 | COc1cccc(CC(C)N)c1OC (stereo not drawn) | 1.49
73 | CC(=O)Nc1ccc(C(C)(C)C)cc1 | 3.05
74 | Cn1nnnc1SCc1ccccc1 | 1.63
75 | COc1cc(C=O)ccc1OCCOC(=O)c1cccc(Cl)c1 | 3.67
76 | CCCCC(=O)Nc1ccc(Cl)c(Cl)c1 | 4.17
77 | CC(C)C(=O)Nc1ccc(Cl)c(Cl)c1 | 3.72
78 | CCOC(=O)CC(=O)C=Cc1ccccc1C | 2.66
79 | O=S(=O)(NS(=O)(=O)c1ccccc1)c1ccccc1 | 0.52
80 | CC(=O)Nc1ccc(Oc2ccccc2)cc1 | 3.13
81 | COc1cc(C=NO)ccc1OCCOC(=O)c1ccccc1 | 2.94
82 | CCCCOc1ccnc(C=CC2=CC([N+](=O)[O-])O2)n1 (stereo not drawn) | 2.04
83 | O=C(Nc1ccc(Cl)c(Cl)c1)C(F)F | 3.18
84 | CC1=C(C(=O)O)N2C(=O)C(NC(=O)C(O)c3ccccc3)C2SC1 (stereo not drawn) | 0.46
85 | CSC(=O)Nc1ccc(Cl)c(Cl)c1 | 4.23
86 | CN(C(=O)CCSC#N)c1ccc(S(=O)(=O)N(C)C)cc1 | 0.84
87 | O=C(CN(C(=O)CCl)c1ccccc1)Nc1ccccc1 | 2.32
88 | c1ccc(CSc2cnn[nH]2)cc1 | 2.65

Row | Compound | logP
89 | CCCCCCCCNC(N)=NNC(=O)Nc1ccc(Cl)cc1 | 4.35
90 | COC1OC(COC(C)=O)C(OC(C)=O)C(NC(=O)N(CCCl)N=O)C1OC(C)=O (stereo not drawn) | 0.67
91 | c1cc2n(n1)CCN2 | -0.25
92 | COc1cc(S(C)=O)ccc1-c1cn2ccncc2n1 (stereo not drawn) | 1.11
93 | CC(=O)NCCC(=O)N(C)c1ccc(S(=O)(=O)N(C)C)cc1 | -0.35
94 | O=C(O)Cc1n[nH]oc1=O | -1.66
95 | NC1=NC(C(F)(F)F)(C(F)(F)F)NC1(C(F)(F)F)C(F)(F)F | 3.35
96 | O=C(Nc1ccccc1)c1ccc(C(=O)Nc2ccccc2)cc1 | 3.72
97 | CSc1ccccc1NC(C)=O | 1.53
98 | COc1cccc(OC)n1 | 2.3
99 | Cc1ccc(Cc2c[nH]c(NCCCCc3ccc(Br)cc3C)nc2=O)cn1 | 3.61
100 | CCC1OC(=O)C(C)C(OC2CC(C)(OC)C(O)C(C)O2)C(C)C(OC2OC(C)C(O)C(N(C)C)C2O)C(C)(O)CC(C)C(=O)C(C)C(O)C1(C)O (stereo not drawn) | 1.44
101 | N#CN=Nc1ccccc1 | 2.3
102 | COc1ccc(C(C)=O)c(N)c1 | 1.76
103 | CC(=O)OCC1OC(NC(=O)N(CCCl)N=O)C(OC(C)=O)C(OC(C)=O)C1OC(C)=O (stereo not drawn) | 1.04
104 | c1ccc(CSc2nnc[nH]2)cc1 | 1.45
105 | CCOC(=O)N=[N+]([O-])c1ccccc1 | 2.53
106 | Cc1ccc(S(=O)(=O)Oc2ccccc2C(=O)N(C)C)cc1 | 2.01
107 | O=CC(CO)OC(C=O)n1cnc2c(O)ncnc21 (stereo not drawn) | -2.11
108 | O=C(NC(CO)C(O)c1ccc(NC(=O)C2CC2)cc1)C(Cl)Cl (stereo not drawn) | 0.75
